In general, MIC refers to the lowest concentration found to suppress growth. As usually defined, the IC50 is the concentration that gives 50% inhibition.

The subject of data set [1] is Staphylococcus aureus ATCC 43300 (MRSA). Kind of data set: Antimicrobial MIC assay (CO-ADD) against S. aureus MRSA. The data set is classed as cell-based. As to conditions: Staphylococcus aureus, read-out: MIC S.a. The text has this: (§1) Antimicrobial evaluation against S. aureus (MRSA) (ATCC 43300), E. coli (ATCC 25922), K. pneumoniae (ATCC 700603), A. baumannii (ATCC 19606), C. albicans (ATCC 90028), and C. neoformans (ATCC 208821) was undertaken at the Community for Open Antimicrobial Drug Discovery at The University of Queensland (Australia) according to their standard protocols as reported previously.

Data set [2] concerns Escherichia coli ATCC 25922. Kind of data set: Antimicrobial MIC assay (CO-ADD) against E. coli. Conditions: Escherichia coli, ATCC25922, read-out: MIC E.c. The data set is classed as cell-based.
Description: as §1

Data set [3] has as its system Klebsiella pneumoniae ATCC 700603. Kind of data set: Antimicrobial MIC assay (CO-ADD) against K. pneumoniae. It is filed as cell-based. As to conditions: Klebsiella pneumoniae, ATCC700603, read-out: MIC K.p.
Description: as §1

Data set [4] concerns Pseudomonas aeruginosa ATCC 27853. Kind of data set: Antimicrobial MIC assay (CO-ADD) against P. aeruginosa. It is filed as cell-based. Conditions: Pseudomonas aeruginosa, ATCC27853, read-out: MIC P.a.
Data set [5] relates to Acinetobacter baumannii ATCC 19606. Kind of data set: Antimicrobial MIC assay (CO-ADD) against A. baumannii. Conditions: Acinetobacter baumannii, ATCC19606, read-out: MIC A.b. The data set is classed as cell-based.
Description: as §1

Data set [6] has as its system Candida albicans ATCC 90028. Kind of data set: Antimicrobial MIC assay (CO-ADD) against C. albicans. Conditions: Candida albicans, ATCC90028, read-out: MIC C.a., Candida albicans ATCC 90028; mean (n = 2). The data set is classed as cell-based.
Description: as §1

Data set [7] relates to Cryptococcus neoformans ATCC 208821. Kind of data set: Antimicrobial MIC assay (CO-ADD) against C. neoformans. The data set is classed as cell-based. As to conditions: Cryptococcus neoformans, ATCC208821, read-out: MIC C.n.
Description: as §1

Data set [8] in a line: Cytotoxicity assay on HEK293. The data set is classed as cell-based, human. Conditions: human, HEK293 human embryonic kidney cells; concentration at 50% cytotoxicity on HEK293; mean (n = 2); top dose tested 32 μg/mL. The protocol:
(§2) Cytotoxicity assays were conducted using the protocols previously reported.

Another data set concerns human red blood cells. Kind of data set: Hemolytic assay. It is filed as cell-based. As to conditions: concentration at 10% hemolytic activity on human red blood cells; mean (n = 2); top dose tested 32 μg/mL. The protocol:
Hemolytic assays were conducted using the protocols previously reported.

Another data set deals with P. aeruginosa ATCC 27853. Kind of data set: Antibiotic enhancement of doxycycline. As to conditions: doxycycline at 2 μg/mL. The data set is classed as cell-based, Pseudomonas aeruginosa. The protocol:
(§3) Restoring enhancer concentrations were determined with an inoculum of 5 × 10^5 CFU in […] of MH broth containing two-fold serial dilutions of each derivative in the presence of either doxycycline or erythromycin at 2 μg/mL. […] These measurements were independently repeated in triplicate.

The next data set has as its system E. coli ATCC 25922. Kind of data set: Antibiotic enhancement of erythromycin. The data set is classed as cell-based, Escherichia coli. Conditions: erythromycin at 2 μg/mL. The protocol:
as §3

Another data set deals with S. aureus. Kind of data set: ATP release bioluminescence assay. It is filed as cell-based, Staphylococcus aureus. Conditions: followed over 30 min after exposure, CTAB (1%) positive control. The method, then: Solutions of the test compound 7e were prepared in DMSO at various concentrations. A suspension of growing S. aureus to be studied in Muller-Hinton II broth was prepared and incubated at 37 °C. An aliquot (90 µL) of this suspension was added to 10 µL of test compound solution and vortexed for 10 s. Luciferin–luciferase reagent (Yelen, France; 50 µL) was immediately added to this mixture, and luminescent signal quantified with an Infinite M200 microplate reader (Tecan) over a 30 min period; ATP concentration was quantified using internal sample addition. A similar procedure was used for the CTAB positive control.

Data set [9] has as its system HEK293 human embryonic kidney cells. Kind of data set: Cytotoxicity assay on HEK293. As to conditions: concentration at 50% cytotoxicity on HEK293; mean (n = 2); top dose tested 32 μg/mL. The data set is classed as cell-based. The protocol: as §2

A value given as a limit tells only on which side of the number the result lay.

In the case of `C[C@H](CCC(=O)NCCCNCCCCCCCCNCCCNC(=O)CC[C@@H](C)[C@H]1CC[C@H]2[C@@H]3C[C@H](O)[C@@H]4C[C@H](O)CC[C@]4(C)[C@H]3CC[C@]12C)[C@H]1CC[C@H]2[C@@H]3C[C@H](O)[C@@H]4C[C@H](O)CC[C@]4(C)[C@H]3CC[C@]12C.O=C(O)C(F)(F)F.O=C(O)C(F)(F)F` [Compound 7d, N^1,N^8-Bis(3-((R)-4-((3R,5R,6S,8S,9S,10R,13R,14S,17R)-3,6-dihydroxy-10,13-dimethylhexadecahydro-1H-cyclopenta[a]phenanthren-17-yl)pentanamido)propyl)octane-1,8-diaminium 2,2,2-trifluoroacetate], the MIC in [1] was no more than 0.2 µM; in [2], greater than 26 µM; in data set [3], greater than 26 µM; in data set [4], greater than 26 µM; in data set [5], greater than 26 µM; in [6], 13 µM. Moreover, in [7], the MIC was no more than 0.2 µM. Besides, the half-inhibitory concentration (IC50) in data set [8] is greater than 26 µM. In addition, the “Hemolysis (HC10)” value in the data set on human red blood cells was greater than 26 µM. Besides, the “enhancement of antibiotic activity of doxycycline” value (shortened to “enhancement … of doxycycline”) with P. aeruginosa ATCC 27853 is on record as “No enhancement was observed”. In addition, the “enhancement of antibiotic activity of erythromycin” value (“enhancement … of erythromycin” below) in the data set with E. coli ATCC 25922 is listed as “No enhancement was observed”.
Regarding `CCCCCCCCCCCCCCCC[N+](C)(C)C` [CTAB, cetyltrimethylammonium bromide, reference compound], in the data set with S. aureus, the “ATP release (extracellular ATP, bioluminescence)” value is reported as “dramatically disrupted the S. aureus membrane after 2 min”.
With `C[C@H](CCC(=O)NCCCNCCCCNCCCNC(=O)CC[C@@H](C)[C@H]1CC[C@H]2[C@@H]3[C@H](O)C[C@@H]4C[C@H](O)CC[C@]4(C)[C@H]3CC[C@]12C)[C@H]1CC[C@H]2[C@@H]3[C@H](O)C[C@@H]4C[C@H](O)CC[C@]4(C)[C@H]3CC[C@]12C.O=C(O)C(F)(F)F.O=C(O)C(F)(F)F` [Compound 9a, N^1,N^4-Bis(3-((R)-4-((3R,5S,7R,8R,9S,10S,13R,14S,17R)-3,7-dihydroxy-10,13-dimethylhexadecahydro-1H-cyclopenta[a]phenanthren-17-yl)pentanamido)propyl)butane-1,4-diaminium 2,2,2-trifluoroacetate], the MIC was no more than 0.21 µM in data set [1]; 6.8 µM in data set [2]; greater than 27 µM in data set [3]; greater than 27 µM in data set [4]; 27 µM in [5]; no more than 0.21 µM in data set [6]. In addition, in [7], the minimal inhibitory concentration (MIC) was no more than 0.21 µM. In data set [8], the midpoint of inhibition, the IC50, lay at 27 µM. In data set [9], the “Cytotoxicity (IC50)” value was “devoid of cytotoxicity”.
On to `C[C@H](CCC(=O)NCCCNCCCCCCCNCCCNC(=O)CC[C@@H](C)[C@H]1CC[C@H]2[C@@H]3C[C@H](O)[C@@H]4C[C@H](O)CC[C@]4(C)[C@H]3CC[C@]12C)[C@H]1CC[C@H]2[C@@H]3C[C@H](O)[C@@H]4C[C@H](O)CC[C@]4(C)[C@H]3CC[C@]12C.O=C(O)C(F)(F)F.O=C(O)C(F)(F)F` [Compound 7c, N^1,N^7-Bis(3-((R)-4-((3R,5R,6S,8S,9S,10R,13R,14S,17R)-3,6-dihydroxy-10,13-dimethylhexadecahydro-1H-cyclopenta[a]phenanthren-17-yl)pentanamido)propyl)heptane-1,7-diaminium 2,2,2-trifluoroacetate], for which the MIC was no more than 0.21 µM in data set [1]; greater than 26 µM in data set [2]; greater than 26 µM in [3]; greater than 26 µM in data set [4]; greater than 26 µM in data set [5]; 13 µM in data set [6]. Moreover, the MIC in data set [7] is no more than 0.21 µM. In data set [8], the IC50 is greater than 26 µM. Moreover, the “Hemolysis (HC10)” value in the data set with human red blood cells was greater than 26 µM. The “enhancement … of doxycycline” value with P. aeruginosa ATCC 27853 was “No enhancement was observed”. Moreover, the “enhancement … of erythromycin” value in the data set on E. coli ATCC 25922 is “No enhancement was observed”.
Take `C[C@H](CCC(=O)NCCCNCCCCCCCCCCCCNCCCNC(=O)CC[C@@H](C)[C@H]1CC[C@H]2[C@@H]3[C@@H](O)C[C@@H]4C[C@H](O)CC[C@]4(C)[C@H]3CC[C@]12C)[C@H]1CC[C@H]2[C@@H]3[C@@H](O)C[C@@H]4C[C@H](O)CC[C@]4(C)[C@H]3CC[C@]12C.O=C(O)C(F)(F)F.O=C(O)C(F)(F)F` [Compound 8f, N^1,N^12-Bis(3-((R)-4-((3R,5S,7S,8R,9S,10S,13R,14S,17R)-3,7-dihydroxy-10,13-dimethylhexadecahydro-1H-cyclopenta[a]phenanthren-17-yl)pentanamido)propyl)dodecane-1,12-diaminium 2,2,2-trifluoroacetate]: the MIC was no more than 0.19 µM in data set [1]; greater than 25 µM in data set [2]; greater than 25 µM in [3]; greater than 25 µM in [4]; greater than 25 µM in data set [5]; 3.1 µM in data set [6]. Moreover, the MIC in data set [7] was no more than 0.19 µM. This compound also yielded a half-inhibitory concentration (IC50) in [8] of 8.4 µM. For the same compound, the “Cytotoxicity (IC50)” value in data set [9] was “exhibiting cytotoxic properties”. Also, the “Hemolysis (HC10)” value with human red blood cells came to 1.4 µM.
As for `C[C@H](CCC(=O)NCCCNCCCCNCCCNC(=O)CC[C@@H](C)[C@H]1CC[C@H]2[C@@H]3C[C@H](O)[C@@H]4C[C@H](O)CC[C@]4(C)[C@H]3CC[C@]12C)[C@H]1CC[C@H]2[C@@H]3C[C@H](O)[C@@H]4C[C@H](O)CC[C@]4(C)[C@H]3CC[C@]12C.O=C(O)C(F)(F)F.O=C(O)C(F)(F)F` [Compound 7a, N^1,N^4-Bis(3-((R)-4-((3R,5R,6S,8S,9S,10R,13R,14S,17R)-3,6-dihydroxy-10,13-dimethylhexadecahydro-1H-cyclopenta[a]phenanthren-17-yl)pentanamido)propyl)butane-1,4-diaminium 2,2,2-trifluoroacetate], the MIC in data set [1] was 3.4 µM; in data set [2] it was greater than 27 µM; in data set [3] it was greater than 27 µM; in data set [4], greater than 27 µM; in [5] it was greater than 27 µM; in [6], 14 µM. Further, the MIC in data set [7] was no more than 0.21 µM. Further, the IC50 in [8] is greater than 27 µM. The “Hemolysis (HC10)” value in the data set with human red blood cells was greater than 27 µM. The “enhancement … of doxycycline” value in the data set on P. aeruginosa ATCC 27853 was “No enhancement was observed”. Moreover, in the data set with E. coli ATCC 25922, the “enhancement … of erythromycin” value is recorded as “No enhancement was observed”.

These data come from paper PMC9951859, “Investigation of α,ω-Disubstituted Polyamine-Cholic Acid Conjugates Identifies Hyodeoxycholic and Chenodeoxycholic Scaffolds as Non-Toxic, Potent Antimicrobials” (Antibiotics, 2023).
